27 compounds from patent publication US7265152B2 (ViroPharma Incorporated, priority 2002, dated 2007) can be followed below.

Like-named read-outs stand apart in the source and are kept apart here.

For assay [1], the system named is HCV replicon (BB7 sequence) in Huh-7-Clone A cells. The assay is described as follows: HCV replicon assay: ELISA of NS5A protein in replicon-containing cells (Inhibition of Viral RNA Replication). The format is cell-based. The settings on record: Hepatitis C virus. The method, boiled down: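 EC50 taken from an 8-point serially diluted dose curve, with NS5A level as read-out: fixed cells probed with primary monoclonal and HRP-conjugated secondary, TMB developed 30 min, OD 650 nm. Compound exposure 72 h in Huh-7-Clone A replicon cells (BB7 sequence).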
Background: Replicon systems follow genome replication, usually without infectious particles.

The target in another assay is T1, HCV NS5B (Hepatitis C virus genotype 1b, UniProt Q9WMX2).
T1 construct: fusion protein, of which the carboxyl terminal 21 amino acids were removed to enhance its solubility; His tag (GSHHHHHH); made in house; host or cells: E. coli
Kind of assay: Inhibition of viral RNA-dependent RNA polymerase (RdRp), in vitro biochemical assay. More on the design: species or system HCV genotype 1b virus (BB7). The settings on record: read-out: HCV pol-BB7 IC50. The gist of the method:
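IC50 values are the concentrations that halve in vitro RNA synthesis by HCV NS5B polymerase. The enzyme was a C-terminally truncated (Δ21), His-tagged genotype 1b (BB7 consensus) protein purified from E. coli.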

Setting [2] is: HCV replicon, range of EC50, read-out: Replicon.
The mark [3] stands for this setting: HCV NS5B RdRp, BB7, reported as range class.
Where [4] appears, read: ranges of EC50 in HCV replicon assay, read-out: Replicon.
Where [5] appears, read: Huh-7-Clone A, NS5A ELISA, 72-hour incubation, ranges of EC50, read-out: Replicon.
The mark [6] stands for this setting: purified His-tagged NS5B (BB7), carboxyl terminal 21 amino acids removed.
The mark [7] stands for this setting: HCV replicon assay, ranges of EC50, read-out: Replicon.
The mark [8] stands for this setting: HCV NS5B RdRp, BB7, class symbols A-D.
Setting [9] is: HCV replicon assay, ranges of 50% effective concentration (EC50), read-out: Replicon.
The mark [10] stands for this setting: HCV NS5B polymerase, BB7 (genotype 1b), values given as range classes A-D.

As to `CNC(=O)c1c(-c2ccc(F)cc2)oc2cc(C(C)=O)c(OC(C)C)cc12` [Example 196, 6-Acetyl-2-(4-fluoro-phenyl)-5-isopropoxy-benzofuran-3-carboxylic acid methyladime], the EC50 in assay [1] (setting [2]) was below 1 µM. Further, the IC50 on HCV NS5B (setting [3]) is at most 500 nM.

With `CNC(=O)c1c(-c2ccc(N)cc2)oc2ccc(OC(C)C)cc12` [Example 99, 2-(4-Amino-phenyl)-5-isopropoxy-benzofuran-3-carboxylic acid methylamide], in assay [1] (setting [4]), the EC50 was below 30 µM. Further, the IC50 at HCV NS5B (HCV NS5B RdRp, BB7 genotype 1b) was in the range of 500 to 5000 nM.

With `CCc1cc2c(C(=O)NC)c(-c3ccc(F)cc3)oc2cc1N(C)S(C)(=O)=O` [Example 45, 5-Ethyl-2-(4-fluoro-phenyl)-6-(methanesulfonyl-methyl-amino)-benzofuran-3-carboxylic acid methylamide], the EC50 in assay [1] (setting [5]) was below 1 µM. Further, the IC50 on HCV NS5B (setting [6]) was at most 500 nM.

With `CNC(=O)c1c(-c2ccc(F)cc2)oc2cc(N(CC(C)O)S(C)(=O)=O)c(OC(C)C)cc12` (stereo not drawn) [Example 253, 2-(4-Fluoro-phenyl)-6-[(2-hydroxy-propyl)-methanesulfonyl-amino]-5-isopropoxy-benzofuran-3-carboxylic acid methylamide], the EC50 in assay [1] (setting [7]) is below 1 µM. The IC50 on HCV NS5B (setting [8]) was at most 500 nM.

Take `CNC(=O)c1c(-c2ccc(F)cc2)oc2cc(C(C)N(C)S(C)(=O)=O)c(OC)cc12` (stereo not drawn) [Example 303, 2-(4-Fluoro-phenyl)-6-[1-(methanesulfonyl-methyl-amino)-ethyl]-5-methoxy-benzofuran-3-carboxylic acid methylamide]: in assay [1] (setting [7]), the EC50 was below 1 µM. The IC50 on HCV NS5B (setting [8]) was at most 500 nM.

As to `CNC(=O)c1c(-c2occc2C)oc2ccc(OC(C)C)cc12` [Example 121, 5-Isopropoxy-2-(3-methyl-furan-2-yl)-benzofuran-3-carboxylic acid methylamide], the EC50 in assay [1] (setting [4]) is below 30 µM. Moreover, the concentration for half-maximal inhibition (IC50) at HCV NS5B (HCV NS5B RdRp, BB7 genotype 1b) was 500 to 5000 nM.

In the case of `CNC(=O)c1c(-c2ccc(F)cc2)oc2cc(N3CCOCC3)c(OCC(C)=O)cc12` [Example 215, 2-(4-Fluoro-phenyl)-6-morpholin-4-yl-5-(2-oxo-propoxy)-benzofuran-3-carboxylic acid methylamide], the EC50 in assay [1] (setting [2]) was below 10 µM. Besides, at HCV NS5B (setting [3]), the IC50 is 500 to 5000 nM.

For `CNC(=O)c1c(-c2ccc(F)cc2)oc2cc(N3CCOCC3)c(OCc3ccc4c(c3)C(=O)OC(C)(C)O4)cc12` [Example 293], the EC50 in assay [1] (read-out: Replicon (μM)) was below 10 µM. Moreover, the IC50 on HCV NS5B (setting [8]) was 500 to 5000 nM.

For `CNC(=O)c1c(-c2ccc(F)cc2)oc2cc(N(CCO)S(C)(=O)=O)c(OC)cc12` [Example 42, 2-(4-Fluoro-phenyl)-6-[(2-hydroxy-ethyl)-methanesulfonyl-amino]-5-methoxy-benzofuran-3-carboxylic acid methylamide], the EC50 in assay [1] (setting [5]) is below 1 µM. The IC50 on HCV NS5B (setting [6]) was at most 500 nM.

Regarding `CNC(=O)c1c(-c2ccc(F)cc2)oc2cc(N3CC[S+]([O-])CC3)c(OC(C)C)cc12` [Example 188, 2-(4-Fluoro-phenyl)-5-isopropoxy-6-(1-oxo-thiomorpholin-4-yl)-benzofuran-3-carboxylic acid methylamide], the EC50 in assay [1] (setting [2]) is below 10 µM. Besides, the IC50 on HCV NS5B (setting [3]) was in the range of 5000 to 30000 nM.

For the compound `CNC(=O)c1c(-c2ccc(F)cc2)oc2cc(N3CCOCC3)c(OCc3cccc(OC)c3)cc12` [Example 210, 2-(4-Fluoro-phenyl)-5-(3-methoxy-benzyloxy)-6-morpholin-4-yl-benzofuran-3-carboxylic acid methylamide], the EC50 in assay [1] (setting [2]) was below 1 µM. The IC50 at HCV NS5B (setting [3]) was at most 500 nM.

As for `CNC(=O)c1c(-c2ccc(F)cc2)oc2cc(N3CCOCC3)c(OCc3noc(-c4c(C)noc4C)n3)cc12` [Example 203, 5-[5-(3,5-Dimethyl-isoxazol-4-yl)-[1,2,4]oxadiazol-3-ylmethoxy]-2-(4-fluoro-phenyl)-6-morpholin-4-yl-benzofuran-3-carboxylic acid methylamide], in assay [1] (setting [2]), the EC50 was below 10 µM. Further, the IC50 at HCV NS5B (setting [3]) was in the range of 500 to 5000 nM.

As to `CNC(=O)c1c(-c2ccc(F)cc2)oc2cc(-c3c(C)noc3C)c(OCc3nccs3)cc12` [Example 410, 6-(3,5-Dimethyl-isoxazol-4-yl)-2-(4-fluoro-phenyl)-5-(thiazol-2-ylmethoxy)-benzofuran-3-carboxylic acid methylamide], in assay [1] (setting [9]), the EC50 was below 1 µM. For the same compound, on HCV NS5B (setting [10]), the IC50 was at most 500 nM.

On to `CNC(=O)c1c(-c2ccc(F)cc2)oc2cc(N(C3CCCC3)S(C)(=O)=O)c(OC(C)C)cc12` [Example 163, 6-(Cyclopentyl-methanesulfonyl-amino)-2-(4-fluoro-phenyl)-5-isopropoxy-benzofuran-3-carboxylic acid methylamide], for which, in assay [1] (setting [4]), the EC50 was below 1 µM. Also, the IC50 at HCV NS5B (HCV NS5B RdRp, BB7 genotype 1b) is at most 500 nM.

On to `CNC(=O)c1c(-c2ccc(F)cc2)oc2cc(NS(C)(=O)=O)c(C3CC3)cc12` [Example 418, 5-Cyclopropyl-2-(4-fluoro-phenyl)-6-methanesulfonylamino-benzofuran-3-carboxylic acid methylamide], for which the EC50 in assay [1] (setting [9]) was below 1 µM. In addition, at HCV NS5B (setting [10]), the IC50 was at most 500 nM.

As to `CNC(=O)c1c(-c2ccc(F)cc2)oc2cc(C(C)=O)c(O)cc12` [Example 276, 6-Acetyl-2-(4-fluoro-phenyl)-5-hydroxy-benzofuran-3-carboxylic acid methylamide], in assay [1] (setting [7]), the EC50 was below 10 µM. Moreover, the IC50 on HCV NS5B (setting [8]) fell in the range of 500 to 5000 nM.

Turning to `CNC(=O)c1c(-c2ccc(F)cc2)oc2cc(N(CC(=O)O)S(C)(=O)=O)c(OC(C)C)cc12` [Example 189, {[2-(4-Fluoro-phenyl)-5-isopropoxy-3-methylcarbamoyl-benzofuran-6-yl]-methanesulfonyl-amino}-acetic acid], the EC50 in assay [1] (setting [2]) was below 1 µM. Further, the IC50 at HCV NS5B (setting [3]) lay in the range of 500 to 5000 nM.

For `CNC(=O)c1c(-c2ccc(F)cc2)oc2cc(N(Cc3ccc(C(=O)OC)cc3)S(C)(=O)=O)c(OC(C)C)cc12` [Example 270, 4-({[2-(4-Fluoro-phenyl)-5-isopropoxy-3-methylcarbamoyl-benzofuran-6-yl]-methanesulfonyl-amino}-methyl)-benzoic acid methyl ester], the EC50 in assay [1] (setting [7]) is below 1 µM. For the same compound, the IC50 at HCV NS5B (setting [8]) was at most 500 nM.

For the compound `CCOc1cc2c(C(=O)NC)c(-c3ccc(F)cc3)oc2cc1N1CCOCC1` [Example 166, 5-Ethoxy-2-(4-fluoro-phenyl)-6-morpholin-4-yl-benzofuran-3-carboxylic acid methylamide], the EC50 in assay [1] (setting [4]) was below 10 µM. Further, at HCV NS5B (HCV NS5B RdRp, BB7 genotype 1b), the IC50 lay within 500 to 5000 nM.

In the case of `CNC(=O)c1c(-c2ccc(F)cc2)oc2cc(N3CCC(F)CC3)c(OC(C)C)cc12` [Example 171, 2-(4-Fluoro-phenyl)-6-(4-fluoro-piperidin-1-yl)-5-isopropoxy-benzofuran-3-carboxylic acid methylamide], the EC50 in assay [1] (setting [4]) is below 1 µM. Further, the 50% inhibitory concentration (IC50) at HCV NS5B (HCV NS5B RdRp, BB7 genotype 1b) fell in the range of 500 to 5000 nM.

As for `CNC(=O)c1c(-c2ccc(C)c(F)c2)oc2ccc(OC)cc12` [Example 69, 2-(3-Fluoro-4-methyl-phenyl)-5-methoxy-benzofuran-3-carboxylic acid methylamide], the EC50 in assay [1] (setting [5]) was below 10 µM. For the same compound, the half-maximal inhibitory concentration (IC50) on HCV NS5B (setting [6]) is at most 500 nM.

Consider `CNC(=O)c1c(-c2ccc(F)cc2)oc2cc(N(C)S(C)(=O)=O)c(OCc3ccc(C(=O)OC)cc3)cc12` [Example 305, 4-[2-(4-Fluoro-phenyl)-6-(methanesulfonyl-methyl-amino)-3-methylcarbamoyl-benzofuran-5-yloxymethyl]-benzoic acid methyl ester], for which the EC50 in assay [1] (setting [7]) was below 1 µM. Moreover, at HCV NS5B (setting [8]), the IC50 was at most 500 nM.

On to `COc1cc2c(C(=O)NC3CC3)c(-c3ccc(F)cc3)oc2cc1-c1c(C)noc1C` [Example 380, 6-(3,5-Dimethyl-isoxazol-4-yl)-2-(4-fluoro-phenyl)-5-methoxy-benzofuran-3-carboxylic acid cyclopropylamide], for which the EC50 in assay [1] (setting [7]) was below 1 µM. Also, on HCV NS5B (HCV NS5B RdRp, BB7, activity class), the IC50 is at most 500 nM.

With `CNC(=O)c1c(-c2ccc(N3CCOCC3)cc2)oc2ccc(OC)cc12` [Example 93, 5-Methoxy-2-(4-morpholin-4-yl-phenyl)-benzofuran-3-carboxylic acid methylamide], the EC50 in assay [1] (setting [4]) is above 30 µM. Also, the IC50 at HCV NS5B (HCV NS5B RdRp, BB7 genotype 1b) is 500 to 5000 nM.

On to `CNC(=O)c1c(-c2ccc(F)cc2)oc2cc(C3CNC(=O)C3)c(OC)cc12` (stereo not drawn) [Example 315, 2-(4-Fluoro-phenyl)-5-methoxy-6-(5-oxo-pyrrolidin-3-yl)-benzofuran-3-carboxylic acid methylamide], for which, in assay [1] (setting [7]), the EC50 was below 10 µM. Further, the IC50 on HCV NS5B (setting [8]) is at most 500 nM.

`CNC(=O)c1c(-c2ccc(Br)c(F)c2)oc2ccc(OC(C)C)cc12` [Example 90, 2-(4-Bromo-3-fluoro-phenyl)-5-isopropoxy-benzofuran-3-carboxylic acid methylamide]: the EC50 in assay [1] (setting [4]) was below 10 µM. Besides, the IC50 on HCV NS5B (HCV NS5B RdRp, BB7 genotype 1b) is at most 500 nM.

For the compound `CNC(=O)c1c(-c2ccc(Br)cc2)oc2ccc(OC)cc12` [Example 70, 2-(4-Bromo-phenyl)-5-methoxy-benzofuran-3-carboxylic acid methylamide], the EC50 in assay [1] (setting [5]) is below 10 µM. For the same compound, on HCV NS5B (setting [6]), the IC50 was at most 500 nM.

The term IC50 denotes the concentration that gives 50% inhibition.
